For 22 compounds, TGI results are on record in PubChem BioAssay (NCI).

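How tested: cells in 96-well plates exposed to compound for 48 hours at five concentrations. Definition used: TGI = concentration required for complete inhibition of growth.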 Where a SMILES comes first, the peptide text is derived from it. [ ]: non-standard residue; d: D form. The star is where a group is joined. ξ: configuration not given here. ξF = NC(Cc1ccccc1)C(=O)O; Cbz = O=C(OCc1ccccc1)*; Aib = CC(C)(N)C(=O)O Where only a bound is given, the exact number is not on record here.

Among the test systems are BT-549 breast; HCT-116 colon; K-562 leukemia; LOX IMVI melanoma; MDA-MB-435; OVCAR-5 ovarian; RPMI-8226 leukemia; SF-268 CNS; SK-OV-3 ovarian; U251 CNS; RXF 393 renal.
What all share (assay): growth of human tumour cells (NCI), 48 h

As for `COc1cc(/C=C2\N=C(c3ccccc3)N(c3ccc(C(=O)c4ccccc4)cc3N3C(=O)/C(=C/c4ccc(O)c(OC)c4)N=C3c3ccccc3)C2=O)ccc1O`, the TGI in the experiment with BT-549 breast is > 100 µM; in the experiment with HCT-116 colon it was 23.2 µM; with K-562 leukemia, 53 µM; in the experiment on LOX IMVI melanoma it was 37.1 µM; in the experiment with MDA-MB-435, 8.16 µM; with OVCAR-5 ovarian, 95.5 µM. Besides, the TGI in the experiment on RPMI-8226 leukemia stood at 94.3 µM; in the experiment with SF-268 CNS it was 74 µM; in the experiment with SK-OV-3 ovarian it was 45 µM; with U251 CNS it was 37.5 µM.

In the case of `CCOC(=O)Cn1c2ccc(Br)cc2c2nc3ccccc3nc21`, the TGI in the experiment on HCT-116 colon, in the experiment on K-562 leukemia, in the experiment on LOX IMVI melanoma, with MDA-MB-435, in the experiment on OVCAR-5 ovarian and in the experiment with RPMI-8226 leukemia was > 100 µM in each case. The TGI with RXF 393 renal, with SF-268 CNS and with U251 CNS was > 100 µM in each case.

Turning to `Cc1[nH]c(=O)[nH]c(=O)c1/C=C/C(=O)NC(CO)CS(=O)CS(C)=O` (stereo unspecified), the TGI came to 129 µM in the experiment with HCT-116 colon; 135 µM in the experiment with K-562 leukemia; 86.9 µM in the experiment with LOX IMVI melanoma; 483 µM with OVCAR-5 ovarian; 183 µM in the experiment on RPMI-8226 leukemia; 125 µM in the experiment with RXF 393 renal. The TGI in the experiment with SF-268 CNS is 35.2 µM; in the experiment with SK-OV-3 ovarian, 169 µM; in the experiment on U251 CNS, 39.6 µM.

With `COC(=O)C1=C(C)N2CCSC2(C)C(C(=O)OC)C1c1cccc(Cl)c1` (stereo unspecified), the TGI in the experiment on HCT-116 colon was 34.9 µM; with K-562 leukemia, > 100 µM; with RPMI-8226 leukemia, 81.7 µM; with RXF 393 renal, 53.5 µM; with SF-268 CNS, 43.7 µM.

As for `CCOC(=O)CNC(=O)C(Cc1ccccc1)NC(=O)C(C)(C)NC(=O)OCc1ccccc1` (stereo unspecified) (Cbz-[Aib]-[ξF]-Gly-OEt), the TGI in the experiment on HCT-116 colon, in the experiment on K-562 leukemia, with LOX IMVI melanoma, in the experiment with MDA-MB-435, with OVCAR-5 ovarian and with RPMI-8226 leukemia was > 100 µM in each case. Further, the TGI with SF-268 CNS and in the experiment with U251 CNS was > 100 µM each time.

`C[Si](C)(C)c1ccc(-c2c3ccc(-c4cc(Br)cc(Br)c4)nc3nc3nc(-c4cc(Br)cc(Br)c4)ccc23)cc1`: the TGI with BT-549 breast, in the experiment on HCT-116 colon, in the experiment with MDA-MB-435, with OVCAR-5 ovarian, in the experiment with RPMI-8226 leukemia and with SF-268 CNS was > 100 µM in each case. For the same compound, the TGI in the experiment with SK-OV-3 ovarian and with U251 CNS was > 100 µM in each case.

On to `Cc1c(/C=N/NC(=S)Nc2ccc(Cl)cc2)c(=O)n(-c2ccccc2)n1C`, for which the TGI in the experiment with HCT-116 colon is > 62.5 µM; in the experiment with K-562 leukemia it was > 100 µM; in the experiment with LOX IMVI melanoma, > 100 µM; in the experiment with MDA-MB-435, > 100 µM; in the experiment with OVCAR-5 ovarian, > 100 µM; in the experiment on RPMI-8226 leukemia, > 100 µM. The TGI in the experiment on RXF 393 renal is 28 µM; in the experiment with SF-268 CNS it was 39 µM; in the experiment with SK-OV-3 ovarian it was 35.8 µM; with U251 CNS, 30.7 µM.

Regarding `O=C(NC(Cc1ccc(Br)cc1)C(=O)O)c1ccc(I)cc1` (stereo unspecified), the TGI with HCT-116 colon, in the experiment with K-562 leukemia, with LOX IMVI melanoma, in the experiment on OVCAR-5 ovarian, in the experiment with RPMI-8226 leukemia and in the experiment on RXF 393 renal was > 100 µM in each case. In addition, the TGI with SF-268 CNS, in the experiment with SK-OV-3 ovarian and in the experiment with U251 CNS was > 100 µM each time.

Consider `NC(=O)C1CCCN1C(=O)C(N)Cc1ccccc1` (stereo not drawn) (H-Phe-Pro-NH2; configuration not given here), for which the TGI in the experiment with HCT-116 colon, in the experiment with K-562 leukemia, with LOX IMVI melanoma, in the experiment on MDA-MB-435, with OVCAR-5 ovarian and with RPMI-8226 leukemia was > 100 µM throughout. The TGI with SF-268 CNS and in the experiment on U251 CNS was > 100 µM throughout.

As to `COc1ccccc1CC(C)N` (stereo unspecified), the TGI in the experiment with HCT-116 colon, in the experiment with K-562 leukemia, in the experiment on LOX IMVI melanoma, with OVCAR-5 ovarian, in the experiment with RPMI-8226 leukemia and with RXF 393 renal was > 100 µM in each case. Moreover, the TGI with SF-268 CNS, in the experiment with SK-OV-3 ovarian and in the experiment with U251 CNS was > 100 µM in each case.

Consider `Clc1cc(Cl)c2cc3cccc[n+]3cc2c1Cl`, for which the TGI in the experiment with BT-549 breast is 23.3 µM; in the experiment on HCT-116 colon it was > 100 µM; in the experiment with K-562 leukemia it was 45.4 µM; with LOX IMVI melanoma, 34.7 µM; in the experiment with MDA-MB-435, 32.7 µM; with OVCAR-5 ovarian it was 38.7 µM. Besides, the TGI in the experiment with RPMI-8226 leukemia was 45.7 µM; in the experiment with SF-268 CNS, 26.5 µM; with SK-OV-3 ovarian, 30.1 µM; in the experiment with U251 CNS, 34.7 µM.

Regarding `Cc1cc2c(c(O)c1-c1c(C)cc(O)c3c1C(=O)C=CC3=O)C(=O)C=CC2=O`, the TGI in the experiment with BT-549 breast was > 25.5 µM; with K-562 leukemia it was 0.23 µM; in the experiment with LOX IMVI melanoma, 4.21 µM; in the experiment on OVCAR-5 ovarian, 7.86 µM; in the experiment with RPMI-8226 leukemia, 2.29 µM; with RXF 393 renal it was 2.5 µM. Moreover, the TGI in the experiment on SK-OV-3 ovarian came to 29 µM; in the experiment on U251 CNS it was 32.1 µM.

On to `CSc1nc(CO)c(CO)n1C`, for which the TGI in the experiment with HCT-116 colon, in the experiment with K-562 leukemia, with LOX IMVI melanoma, in the experiment on OVCAR-5 ovarian, in the experiment on RPMI-8226 leukemia and in the experiment with RXF 393 renal was > 100 µM in each case. Also, the TGI with SF-268 CNS, in the experiment with SK-OV-3 ovarian and in the experiment on U251 CNS was > 100 µM in each case.

Consider `Nc1ccc(O)c2c1C(=O)c1c(N)ccc(O)c1C2=O`, for which the TGI in the experiment on HCT-116 colon, in the experiment with K-562 leukemia, with LOX IMVI melanoma, in the experiment on OVCAR-5 ovarian, in the experiment on RPMI-8226 leukemia and in the experiment on RXF 393 renal was > 100 µM each time. The TGI with SF-268 CNS, in the experiment with SK-OV-3 ovarian and in the experiment with U251 CNS was > 100 µM in each case.

In the case of `COc1ccc2[nH]c3c(c2c1)CC(=O)N1CCCC(CC3O)C1` (stereo unspecified), the TGI in the experiment on BT-549 breast, with HCT-116 colon, in the experiment on K-562 leukemia, in the experiment on LOX IMVI melanoma, with MDA-MB-435 and in the experiment on RPMI-8226 leukemia was > 100 µM in each case. The TGI with SF-268 CNS, with SK-OV-3 ovarian and in the experiment on U251 CNS was > 100 µM in each case.

`CCCCCCCCCCCCCC1=C(O)C(=O)C(CC2=C(O)C(=O)C(CCCCCCCCCCCCC)=C(O)C2=O)=C(O)C1=O`: the TGI in the experiment on BT-549 breast was > 100 µM; in the experiment on HCT-116 colon it was > 100 µM; in the experiment on K-562 leukemia, > 100 µM; in the experiment on LOX IMVI melanoma, > 100 µM; with OVCAR-5 ovarian, > 100 µM; with RXF 393 renal it was 32.2 µM. Also, the TGI in the experiment on SF-268 CNS, with SK-OV-3 ovarian and in the experiment on U251 CNS was > 100 µM each time.

In the case of `CCCCCCCCCCCCCCCCCCNc1ccn(C2OC(CO)C(OP(=O)(O)OCC(O)COP(=O)(O)OCC3OC(n4cc(F)c(NCCCCCCCCCCCCCCCCCC)nc4=O)CC3O)C2O)c(=O)n1` (stereo unspecified), the TGI in the experiment with BT-549 breast, in the experiment on HCT-116 colon, in the experiment with K-562 leukemia, with LOX IMVI melanoma, with MDA-MB-435 and in the experiment on OVCAR-5 ovarian was > 50 µM in each case. Besides, the TGI in the experiment with RPMI-8226 leukemia, in the experiment with SF-268 CNS, in the experiment with SK-OV-3 ovarian and in the experiment on U251 CNS was > 50 µM each time.

Turning to `CC1(CO)COS(=O)OC1` (stereo unspecified), the TGI in the experiment on HCT-116 colon, in the experiment with LOX IMVI melanoma, in the experiment with MDA-MB-435, with RXF 393 renal, in the experiment on SF-268 CNS and in the experiment on SK-OV-3 ovarian was > 100 µM each time. Moreover, the TGI in the experiment with U251 CNS was > 100 µM.

As for `CON(C)C(=O)[C@H]1C[C@@]1(C)CO`, the TGI in the experiment with BT-549 breast, in the experiment on HCT-116 colon, in the experiment on K-562 leukemia, with MDA-MB-435, with OVCAR-5 ovarian and in the experiment with RXF 393 renal was > 100 µM in each case. The TGI with SF-268 CNS, with SK-OV-3 ovarian and in the experiment on U251 CNS was > 100 µM in each case.

In the case of `COc1ccc(-c2nc3c(nc2-c2ccc(OC)cc2)C(N)=NS(=O)(=O)N3)cc1`, the TGI in the experiment with K-562 leukemia, in the experiment on LOX IMVI melanoma, in the experiment on OVCAR-5 ovarian, in the experiment with RPMI-8226 leukemia, in the experiment on RXF 393 renal and in the experiment with SF-268 CNS was > 100 µM throughout. Moreover, the TGI in the experiment with SK-OV-3 ovarian and in the experiment on U251 CNS was > 100 µM each time.

Take `Nc1[nH]c(=S)nc2nc3c(c(-c4ccccc4)c12)CCCC3`: the TGI in the experiment with BT-549 breast, in the experiment on HCT-116 colon, with K-562 leukemia, in the experiment on LOX IMVI melanoma, in the experiment on MDA-MB-435 and in the experiment on OVCAR-5 ovarian was > 100 µM in each case. Moreover, the TGI in the experiment with RPMI-8226 leukemia, in the experiment on SF-268 CNS, in the experiment with SK-OV-3 ovarian and in the experiment with U251 CNS was > 100 µM throughout.

For `CN(C)CCNC(=O)c1cc(Cl)cc2cc3ccccc3nc12`, the TGI with HCT-116 colon amounted to 7 µM; in the experiment on LOX IMVI melanoma, 2.6 µM; in the experiment on OVCAR-5 ovarian, 1.97 µM; in the experiment with RPMI-8226 leukemia, 8.29 µM; in the experiment with RXF 393 renal it was 2.81 µM; in the experiment with SF-268 CNS, 4.53 µM. The TGI with SK-OV-3 ovarian came out at 9.27 µM; in the experiment on U251 CNS, 8.4 µM.
